Reference: publication PMC7932537, “Quantitative profiling of protease specificity” (PLoS Computational Biology, 2021)

Key:
Type in all cases: biochemical, human
[1] = tested on: MMP-2; experiment: Substrate phage display with NGS: relative probability (RP) of P3-P1' tetramer clusters; conditions: RP of matching tetramer of the cleavage site; unique part of MMP9 selectome
[2] = tested on: MMP-9; experiment: as above; conditions: RP of matching tetramer of the cleavage site; unique part of MMP9 selectome
[3] = tested on: MMP-2; experiment: N-terminomic (TMT) analysis of MMP-treated HEK293 secretome: isotopic enrichment of novel N-termini
[4] = tested on: MMP-9; experiment: as above; conditions: for isotopic enrichment (log2(ratio)): MMP9 cleavages in HEK293 cell proteins, determined by LC-MS/MS, log2(ratio) range (>3σ, 2σ-3σ, 1σ-2σ)
[5] = HEK293 secretome, 750 nM MMP-2, 2 h, 37 C, TMT reporter ratio vs untreated control, LC-MS/MS, duplicate
[6] = HEK293 secretome, 750 nM MMP-9, 2 h, 37 C, TMT reporter ratio vs untreated control, LC-MS/MS, duplicate
[7] = MS detected cleavage sequence, HEK293 proteins, unique part of MMP2 selectome
[8] = MMP2 cleaved HEK293 proteins, common set of MMP2-9 selectome, LC-MS/MS
[9] = MS detected cleavage sequence, HEK293 proteins, common MMP2-9 selectome
[10] = MMP9, HEK293 proteins, common set of MMP2-9 selectome, LC-MS/MS

## LPPDH-LNGVKL
[1]
  relative probability (RP) (acc.to MMP2): 2.08
[2]
  relative probability (RP) (acc.to MMP9): 13.06
[3]; [5]
  isotopic enrichment (log2(ratio)) (acc.to MMP2): 1.257 log2(ratio)
[4]; [6]
  isotopic enrichment (log2(ratio)) (acc.to MMP9): 2.07 log2(ratio)
[4]
  isotopic enrichment (log2(ratio)): 2.07

## FCPMA-AHEEIC [MS detected cleavage site in Fibronectin (P02751)]
[1]
  relative probability (RP) (acc.to MMP2): 3.68
[2]
  relative probability (RP) (acc.to MMP9): 16.94
[3]; [5]
  isotopic enrichment (log2(ratio)) (acc.to MMP2): 0.5261 log2(ratio)
[4]; [6]
  isotopic enrichment (log2(ratio)) (acc.to MMP9): 1.774 log2(ratio)
[4]
  isotopic enrichment (log2(ratio)): 1.774

## KSIYY-ITGESK [MS detected cleavage site in Heat shock protein HSP 90-beta (P08238)]
[2]
  relative probability (RP) (acc.to MMP9): 14.54
[3]; [5]
  isotopic enrichment (log2(ratio)) (acc.to MMP2): 0.3785 log2(ratio)
[4]; [6]
  isotopic enrichment (log2(ratio)) (acc.to MMP9): 3.962 log2(ratio)
[4]
  isotopic enrichment (log2(ratio)): 3.962

## PEPES-WNAAQH
[3]; [7]
  isotopic enrichment (log2(ratio)) (acc.to MMP2): 1.66 log2(ratio)
[4]; [7]
  isotopic enrichment (log2(ratio)) (acc.to MMP9): 1.956 log2(ratio)

## GRTLG-LYGKDQ
[3]; [8]
  isotopic enrichment (log2(ratio)) (acc.to MMP2): 2.467
[3]; [9]
  isotopic enrichment (log2(ratio)) (acc.to MMP2): 2.467 log2(ratio)
[4]; [10]
  isotopic enrichment (log2(ratio)) (acc.to MMP9): 3.7845
[4]
  isotopic enrichment (log2(ratio)): 3.7845
[4]; [9]
  isotopic enrichment (log2(ratio)) (acc.to MMP9): 3.7845 log2(ratio)

## GLPRE-LAEAVA
[3]; [9]
  isotopic enrichment (log2(ratio)) (acc.to MMP2): 0.7485 log2(ratio)
[4]
  isotopic enrichment (log2(ratio)): 2.272
[4]; [9]
  isotopic enrichment (log2(ratio)) (acc.to MMP9): 2.272 log2(ratio)

## KRIAN-LQTDLS
[3]; [8]
  isotopic enrichment (log2(ratio)) (acc.to MMP2): 1.918
[3]; [9]
  isotopic enrichment (log2(ratio)) (acc.to MMP2): 1.918 log2(ratio)
[4]; [10]
  isotopic enrichment (log2(ratio)) (acc.to MMP9): 1.791
[4]
  isotopic enrichment (log2(ratio)): 1.791
[4]; [9]
  isotopic enrichment (log2(ratio)) (acc.to MMP9): 1.791 log2(ratio)

## QSPVA-VSQSKP
[3]; [8]
  isotopic enrichment (log2(ratio)) (acc.to MMP2): 4.031
[3]; [9]
  isotopic enrichment (log2(ratio)) (acc.to MMP2): 4.031 log2(ratio)
[4]; [10]
  isotopic enrichment (log2(ratio)) (acc.to MMP9): 4.621
[4]
  isotopic enrichment (log2(ratio)): 4.621
[4]; [9]
  isotopic enrichment (log2(ratio)) (acc.to MMP9): 4.621 log2(ratio)

## GFGRG-LSDKKS
[3]; [8]
  isotopic enrichment (log2(ratio)) (acc.to MMP2): 1.9486
[3]; [9]
  isotopic enrichment (log2(ratio)) (acc.to MMP2): 1.9486 log2(ratio)
[4]; [10]
  isotopic enrichment (log2(ratio)) (acc.to MMP9): 2.021
[4]
  isotopic enrichment (log2(ratio)): 2.021
[4]; [9]
  isotopic enrichment (log2(ratio)) (acc.to MMP9): 2.021 log2(ratio)

## STMNM-LGGGGS
[3]; [7]
  isotopic enrichment (log2(ratio)) (acc.to MMP2): 2.417 log2(ratio)
[4]; [7]
  isotopic enrichment (log2(ratio)) (acc.to MMP9): 0.9184 log2(ratio)

## RKATP-YTFPGG
[3]; [8]
  isotopic enrichment (log2(ratio)) (acc.to MMP2): 1.541
[3]; [9]
  isotopic enrichment (log2(ratio)) (acc.to MMP2): 1.541 log2(ratio)
[4]; [10]
  isotopic enrichment (log2(ratio)) (acc.to MMP9): 1.753
[4]
  isotopic enrichment (log2(ratio)): 1.753
[4]; [9]
  isotopic enrichment (log2(ratio)) (acc.to MMP9): 1.753 log2(ratio)

## FHPEQ-LITGKE
[3]; [8]
  isotopic enrichment (log2(ratio)) (acc.to MMP2): 2.036
[3]; [9]
  isotopic enrichment (log2(ratio)) (acc.to MMP2): 2.036 log2(ratio)
[4]; [10]
  isotopic enrichment (log2(ratio)) (acc.to MMP9): 2.628
[4]
  isotopic enrichment (log2(ratio)): 2.628
[4]; [9]
  isotopic enrichment (log2(ratio)) (acc.to MMP9): 2.628 log2(ratio)

## LDVGG-LQETDK
[3]; [8]
  isotopic enrichment (log2(ratio)) (acc.to MMP2): 3.076
[3]; [9]
  isotopic enrichment (log2(ratio)) (acc.to MMP2): 3.076 log2(ratio)
[4]; [10]
  isotopic enrichment (log2(ratio)) (acc.to MMP9): 1.718
[4]
  isotopic enrichment (log2(ratio)): 1.718
[4]; [9]
  isotopic enrichment (log2(ratio)) (acc.to MMP9): 1.718 log2(ratio)

## MEPVA-HFGLGK
[3]; [9]
  isotopic enrichment (log2(ratio)) (acc.to MMP2): 0.3448 log2(ratio)
[4]
  isotopic enrichment (log2(ratio)): 1.731
[4]; [9]
  isotopic enrichment (log2(ratio)) (acc.to MMP9): 1.731 log2(ratio)

## TGPRF-LISDRD
[3]; [8]
  isotopic enrichment (log2(ratio)) (acc.to MMP2): 1.669
[3]; [9]
  isotopic enrichment (log2(ratio)) (acc.to MMP2): 1.669 log2(ratio)
[4]; [10]
  isotopic enrichment (log2(ratio)) (acc.to MMP9): 2.331
[4]
  isotopic enrichment (log2(ratio)): 2.331
[4]; [9]
  isotopic enrichment (log2(ratio)) (acc.to MMP9): 2.331 log2(ratio)

## VCPRG-YVTSTD
[3]; [8]
  isotopic enrichment (log2(ratio)) (acc.to MMP2): 2.108
[3]; [9]
  isotopic enrichment (log2(ratio)) (acc.to MMP2): 2.108 log2(ratio)
[4]; [10]
  isotopic enrichment (log2(ratio)) (acc.to MMP9): 5.174
[4]
  isotopic enrichment (log2(ratio)): 5.174
[4]; [9]
  isotopic enrichment (log2(ratio)) (acc.to MMP9): 5.174 log2(ratio)

## SYAGS-LAEPYE
[3]; MMP2 cleavages in HEK293 cell proteins, determined by LC-MS/MS, novel N-termini, sections log2(ratio) >3σ, 2σ-3σ, 1σ-2σ, RP above 4.5
  isotopic enrichment (log2(ratio)): 1.521 log2(ratio)
[3]; [8]
  isotopic enrichment (log2(ratio)) (acc.to MMP2): 1.521
[4]; [10]
  isotopic enrichment (log2(ratio)) (acc.to MMP9): 0.9635
